Measured values published in publication PMC3292429 (Channels, 2009).
Entries after “also recorded” stand apart in the source; their conditions may differ.

Tests used:
[1] = test system: IK1 channel; settings: cited from earlier work; for mechanism of IK1 current increase: result in words
[2] = target: BK channel (Mus musculus, UniProt Q08460); settings: result in words; cited from earlier work
[3] = test system: IK1 (intermediate conductance Ca^2+-activated K channel, KCa3.1); assay: Whole-cell patch clamp: IK1 current; assay type: cell-based, mouse; settings: 10 μM DCEBIO, +50 mV, 80 nM free Ca^2+; result in words
[4] = test system: BK channel (large conductance Ca^2+-activated K channel, KCa1.1) in parotid acinar cells; assay: Whole-cell patch clamp: IK1-induced inhibition of BK current; assay type: cell-based, mouse
[5] = test system: BK channel; settings: result in words, cited from earlier work
[6] = test system: IK1 (intermediate conductance Ca^2+-activated K channel, KCa3.1); settings: result in words; cited from earlier work
[7] = stated without own data or reference

Chain of BK channel (Mus musculus, UniProt Q08460) (Q08460 whole entry): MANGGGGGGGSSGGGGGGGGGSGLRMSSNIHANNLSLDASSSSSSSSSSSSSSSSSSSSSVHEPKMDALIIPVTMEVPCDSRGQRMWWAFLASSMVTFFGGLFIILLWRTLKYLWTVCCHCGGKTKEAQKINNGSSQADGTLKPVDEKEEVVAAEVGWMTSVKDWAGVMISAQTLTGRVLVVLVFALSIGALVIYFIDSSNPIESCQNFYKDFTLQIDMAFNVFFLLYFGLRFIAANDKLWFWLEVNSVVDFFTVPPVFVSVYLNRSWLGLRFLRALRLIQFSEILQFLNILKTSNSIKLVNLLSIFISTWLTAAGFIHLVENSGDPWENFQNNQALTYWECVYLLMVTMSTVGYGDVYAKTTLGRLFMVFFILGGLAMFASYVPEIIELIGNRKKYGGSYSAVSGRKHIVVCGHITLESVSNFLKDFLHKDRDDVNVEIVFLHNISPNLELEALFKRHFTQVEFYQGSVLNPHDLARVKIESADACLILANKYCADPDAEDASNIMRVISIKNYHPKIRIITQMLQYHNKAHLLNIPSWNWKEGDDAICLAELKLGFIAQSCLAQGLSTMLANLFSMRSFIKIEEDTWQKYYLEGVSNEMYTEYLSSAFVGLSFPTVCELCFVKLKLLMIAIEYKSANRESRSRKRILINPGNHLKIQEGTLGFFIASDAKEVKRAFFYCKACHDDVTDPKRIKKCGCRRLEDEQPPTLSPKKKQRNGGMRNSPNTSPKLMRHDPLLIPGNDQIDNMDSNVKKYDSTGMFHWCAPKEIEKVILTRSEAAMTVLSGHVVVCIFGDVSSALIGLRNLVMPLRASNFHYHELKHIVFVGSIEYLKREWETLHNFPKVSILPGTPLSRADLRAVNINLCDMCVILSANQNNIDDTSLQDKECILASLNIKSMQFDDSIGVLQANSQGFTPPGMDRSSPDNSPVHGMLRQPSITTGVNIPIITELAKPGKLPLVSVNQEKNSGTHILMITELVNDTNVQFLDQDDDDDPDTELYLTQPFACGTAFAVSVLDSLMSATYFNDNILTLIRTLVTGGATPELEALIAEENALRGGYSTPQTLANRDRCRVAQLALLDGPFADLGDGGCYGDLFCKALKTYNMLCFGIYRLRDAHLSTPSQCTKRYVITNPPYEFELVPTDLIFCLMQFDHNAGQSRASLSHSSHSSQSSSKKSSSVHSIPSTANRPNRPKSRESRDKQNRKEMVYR

CCn1c(=O)[nH]c2ccccc21 [1-EBIO, 1-ethyl-2-benzimidazolinone]
share of closed events accounted for by the two closed times together ([1]; channels activated by 1-EBIO): 97%
share of events with closed time 5 msec ([1]; channels activated by 1-EBIO): 31%
share of events with closed time about 1.6 msec ([1]; channels activated by 1-EBIO): 66%
mechanism of IK1 current increase [1]: increase IK1 current by increasing the channel open probability

CCn1c(=O)[nH]c2cc(Cl)c(Cl)cc21 [DCEBIO, 5,6-Dichloro-1-ethyl-1,3-dihydro-2H-benzimidazol-2-one]
effect on BK channels in cells from IK1 gene-ablated mice [2]: no effects on BK channels
activation of IK1 current [3]: activated the time and voltage independent IK1 currents; also recorded: triggered the expected time- and voltage-independent current through these channels
reduction of BK current ([4]; 2 μM DCEBIO, pooled from 5 cells, voltage-independent (Fig. 5A)): 50%
recovery of BK current after washout of DCEBIO ([4]; 10 μM DCEBIO, +50 mV, 80 nM free Ca^2+ in pipette, single example (Fig. 1)): 96 % of control
mean recovery of BK current after washout of DCEBIO ([4]; 10 μM DCEBIO, +50 mV, mean ± SEM, 9 experiments): 94 ± 3%
effect on time-dependent BK current ([4]; 10 μM DCEBIO, +50 mV, reversible, result in words): time-dependent BK current was reduced when IK1 channels were activated
inhibition of BK channel current by IK1 activation ([4]; 10 μM DCEBIO, +50 mV, single example (Fig. 2)): 60%
reduction in BK current by IK1 activation, remaining cells ([4]; 10 μM DCEBIO, four of 19 cells, omitted from analysis, result in words): only modest reductions
voltage dependence of IK1-induced BK inhibition ([4]; 10 μM DCEBIO, range of test voltages, result in words): very little voltage dependence; also recorded: relatively little and no consistent voltage dependence
mean block of BK current by IK1 activation ([4]; DCEBIO (10 μM), +50 mV, mean ± SEM, N = 5): 66 ± 6%
mechanism of IK1 current increase [1]: increase IK1 current by increasing the channel open probability

CC[N+](CC)(CC)CC [TEA]
effect of internal TEA on BK single channel current level [5, 7]: reduction in the BK single channel current level (as does TEA)
time dependence of open channel block by internal TEA [5, 7]: no apparent time dependence

Clc1ccccc1C(c1ccccc1)(c1ccccc1)n1cccn1 [TRAM-34]
mean BK level after IK1 block by TRAM-34 ([4]; 1 or 10 μM TRAM-34 in presence of DCEBIO, mean ± SEM, N = 5): 88 ± 3 % of control
IK1 channel inhibition [6]: IK1 inhibitor

C[N+](C)(C)CCCCCCCCCC[N+](C)(C)C [decamethonium]
competition of native β subunit inactivation with cytosolic blockers [5]: does not

CC(C)(O)[C@H]1O[C@H]2CC[C@@]3(C)[C@@](O)(CC[C@H]4Cc5c([nH]c6ccccc56)[C@@]43C)C2=CC1=O [paxilline]
BK channel block by paxilline [5]: specific BK channel blocker
